Results published in PMC9369419 (International Journal of Molecular Sciences, 2022).

Key:
[1] = target: T1, GluA2(Q)i (Rattus norvegicus, UniProt P19491); experiment: Intracellular Ca2+ imaging assay, HEK293 cells expressing GluA2(Q)i; type: cell-based; settings: 10 µM compound, Ca2+ fluorescence, read-out: inhibition of agonist-evoked responses at GluA2
T1 construct: expressed in transfected cells
Source text: (§1) For the determination of antagonistic activity of compounds at GluK1, GluK3 and GluA2 receptors, stable HEK293 cell lines expressing rat GluK1b(Q), GluK3a, and GluA2(Q)i were created. A polyclonal stable cell line expressing GluK3a was created as described previously. For the creation of polyclonal stable cell lines expressing GluK1and GluA2 receptors, cDNA encoding blasticidin-S deaminase (blas) enzymes were inserted into the pIRES plasmid vector (Clontech, Mountain View, CA, USA) to create the plasmid vector pRES(blas). […] For functional assays, cells were plated into clear-bottomed, black 96-well fluorescence culture plates (Corning, Vordingborg, Denmark), and when >70% confluent, the cells were loaded with 2 μM Fluo 4-AM calcium sensitive dye (Abcam, Cambridge, UK) and used for the imaging of agonist-evoked changes in intracellular Ca^2+ using a FlexStation I plate reader (Molecular Devices, San Jose, CA, USA). […] Changes in dye fluorescence in response to the addition of an agonist solution were then measured at 538 nm using excitation at 485 nm and emission cut-off at 515 nm. Baseline fluorescence was measured for 16 s before the addition of 50 µL agonist solution to each well of the assay plate, and fluorescence was measured for 120 to 160 s after addition of the agonists. […] Responses were determined in at least triplicate at each compound concentration.

[2] = target: T2, GluK2 (Rattus norvegicus, UniProt P42260); experiment: Radioligand binding at recombinant homomeric GluK2 in Sf9 membranes; settings: recombinant rat homomeric receptor, [3H]-kainic acid, mean ± SEM
T2 construct: made in house; host or cells: Sf9 insect cells (membranes)
T2 sequence (P42260 32-908): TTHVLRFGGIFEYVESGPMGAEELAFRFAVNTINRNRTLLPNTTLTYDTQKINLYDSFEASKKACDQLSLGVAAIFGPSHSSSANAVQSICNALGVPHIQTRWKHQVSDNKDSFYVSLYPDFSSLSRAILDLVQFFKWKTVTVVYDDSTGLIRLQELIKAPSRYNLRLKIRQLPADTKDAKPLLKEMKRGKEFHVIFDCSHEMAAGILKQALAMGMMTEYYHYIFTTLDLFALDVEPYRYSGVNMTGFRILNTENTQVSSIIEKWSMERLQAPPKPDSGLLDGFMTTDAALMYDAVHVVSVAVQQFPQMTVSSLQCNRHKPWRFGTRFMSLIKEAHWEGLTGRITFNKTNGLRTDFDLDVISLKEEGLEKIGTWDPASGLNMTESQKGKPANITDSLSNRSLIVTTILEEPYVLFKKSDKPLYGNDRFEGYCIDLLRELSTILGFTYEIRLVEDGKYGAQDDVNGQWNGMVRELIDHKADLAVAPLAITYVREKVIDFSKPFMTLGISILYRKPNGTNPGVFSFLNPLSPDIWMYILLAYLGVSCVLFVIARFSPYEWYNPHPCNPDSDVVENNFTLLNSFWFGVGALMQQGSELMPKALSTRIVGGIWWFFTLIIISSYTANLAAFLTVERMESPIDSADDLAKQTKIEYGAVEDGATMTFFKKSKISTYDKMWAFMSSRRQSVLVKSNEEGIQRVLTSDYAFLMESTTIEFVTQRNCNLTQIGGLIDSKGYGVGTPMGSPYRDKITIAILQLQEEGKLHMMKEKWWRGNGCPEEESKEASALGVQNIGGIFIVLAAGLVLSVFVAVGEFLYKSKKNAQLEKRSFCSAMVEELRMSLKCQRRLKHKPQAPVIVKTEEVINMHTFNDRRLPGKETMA
Description: (§2) Ligand binding affinities at recombinant rat homomeric GluA2, GluK1−3, and GluK5 were determined as previously detailed. […] The filters were dried at 70 °C for 1 h, and 50 μL/well Microscint 20 (PerkinElmer, Waltham, MA, USA) was added. Radioactivity was detected with a TopCounter (PerkinElmer, Waltham, MA, USA). GluA2 and GluK5 assays were filtered on GF/C type filters using Millipore 12-well filtration manifolds (Merck Life Science, Søborg, Denmark) and washed twice with ice-cold assay buffer. Filters were placed in pony vials (PerkinElmer, Waltham, MA, USA), 3 mL of Ultima Gold scintillation fluid (PerkinElmer, Waltham, MA, USA) was added, and DPM (disintegrations per minute) were determined using a TriCarb 2900 scintillation counter (PerkinElmer, Waltham, MA, USA).
(§3) All competition curves (n ≥ 3 per ligand) were determined in triplicate. Data were analyzed using GraphPad Prism 6 (GraphPad Software, San Diego, CA, USA) to determine ligand affinity (Ki) and Hill coefficient (nH) using the one-site Ki and four-parameter logistics equations, respectively.

[3] = target: T3, GluK1b(Q) (Rattus norvegicus, UniProt P22756); experiment: Intracellular Ca2+ imaging assay, HEK293 cells expressing GluK1b(Q); type: cell-based; settings: 10 µM compound, Ca2+ fluorescence, read-out: inhibition of agonist-evoked responses at GluK1
T3 construct: expressed in transfected cells
T3 sequence (P22756 31-920 isoform P22756-4 limits assumed): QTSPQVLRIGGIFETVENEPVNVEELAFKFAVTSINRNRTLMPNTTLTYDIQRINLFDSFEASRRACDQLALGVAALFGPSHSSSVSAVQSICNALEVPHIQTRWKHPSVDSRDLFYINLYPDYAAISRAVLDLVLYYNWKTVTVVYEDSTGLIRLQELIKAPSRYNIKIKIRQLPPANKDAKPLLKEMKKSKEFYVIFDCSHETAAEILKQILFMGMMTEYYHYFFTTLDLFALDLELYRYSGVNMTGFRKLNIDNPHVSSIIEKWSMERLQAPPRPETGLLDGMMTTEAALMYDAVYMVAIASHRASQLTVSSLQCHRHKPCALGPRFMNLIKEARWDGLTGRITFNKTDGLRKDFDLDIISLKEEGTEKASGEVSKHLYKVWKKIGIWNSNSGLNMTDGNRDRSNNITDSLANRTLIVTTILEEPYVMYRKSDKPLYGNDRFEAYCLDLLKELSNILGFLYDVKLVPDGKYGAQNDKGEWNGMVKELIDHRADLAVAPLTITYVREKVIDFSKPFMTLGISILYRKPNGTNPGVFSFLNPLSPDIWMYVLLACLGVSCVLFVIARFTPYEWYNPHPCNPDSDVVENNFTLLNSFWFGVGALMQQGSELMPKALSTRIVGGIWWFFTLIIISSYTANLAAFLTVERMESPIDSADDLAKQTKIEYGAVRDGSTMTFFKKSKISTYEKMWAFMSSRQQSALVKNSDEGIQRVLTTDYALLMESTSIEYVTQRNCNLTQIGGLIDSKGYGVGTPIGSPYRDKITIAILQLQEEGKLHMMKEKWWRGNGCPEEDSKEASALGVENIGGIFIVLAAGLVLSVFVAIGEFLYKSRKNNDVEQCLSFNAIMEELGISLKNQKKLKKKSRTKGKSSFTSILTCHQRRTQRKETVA
Source text: as §1

[4] = target: T4, GluK1 (Rattus norvegicus, UniProt P22756); experiment: Radioligand binding at recombinant homomeric GluK1 in Sf9 membranes; settings: recombinant rat homomeric receptor, [3H]-(S)-NF608, mean ± SEM
T4 construct: made in house; host or cells: Sf9 insect cells (membranes)
T4 sequence (P22756 31-949): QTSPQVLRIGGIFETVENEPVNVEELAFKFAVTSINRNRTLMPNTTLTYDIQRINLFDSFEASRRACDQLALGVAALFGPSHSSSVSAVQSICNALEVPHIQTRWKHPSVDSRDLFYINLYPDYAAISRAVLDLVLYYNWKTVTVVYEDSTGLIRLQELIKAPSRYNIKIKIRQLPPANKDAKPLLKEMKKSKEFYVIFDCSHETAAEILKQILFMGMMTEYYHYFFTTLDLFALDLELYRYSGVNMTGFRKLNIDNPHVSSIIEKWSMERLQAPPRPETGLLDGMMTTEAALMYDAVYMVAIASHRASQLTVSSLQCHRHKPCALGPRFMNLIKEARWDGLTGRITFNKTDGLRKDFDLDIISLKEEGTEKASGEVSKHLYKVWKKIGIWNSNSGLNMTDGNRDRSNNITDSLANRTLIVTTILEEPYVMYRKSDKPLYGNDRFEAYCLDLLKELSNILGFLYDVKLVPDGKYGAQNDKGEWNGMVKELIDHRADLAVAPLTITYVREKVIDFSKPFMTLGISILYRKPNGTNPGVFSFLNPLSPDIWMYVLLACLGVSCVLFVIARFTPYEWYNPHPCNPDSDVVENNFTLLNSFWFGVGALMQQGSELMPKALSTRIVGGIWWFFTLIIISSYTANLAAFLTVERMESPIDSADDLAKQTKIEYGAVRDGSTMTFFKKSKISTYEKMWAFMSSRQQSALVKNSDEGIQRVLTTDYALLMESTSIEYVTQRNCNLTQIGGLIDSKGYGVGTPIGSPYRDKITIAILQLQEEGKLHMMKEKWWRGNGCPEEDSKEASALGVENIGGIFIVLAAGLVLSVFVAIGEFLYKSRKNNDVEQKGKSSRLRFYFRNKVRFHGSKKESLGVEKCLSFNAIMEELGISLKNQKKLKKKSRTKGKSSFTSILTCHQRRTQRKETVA
Description: as §2, §3

[5] = test system: mGluR2; experiment: mGluR2 functional assay (Ca2+/Fluo-4, mGlu2/Gqo5-HEK293 cells); type: cell-based; settings: 0.1 mM compound
Description: Culture media, serum, antibiotics and buffers for cell culture were obtained from Invitrogen (Paisley, UK). The Fluo-4/AM dye was obtained from Molecular Probes (Eugene, OR, USA), and Glu was purchased from Sigma-Aldrich. The construction and basic pharmacological characterization of the stable mGlu2/Gqo5-HEK293 cell line has been described previously.
Cell culture and Ca^2+/Fluo-4 Assay. The mGlu2/Gqo5-HEK293 cells were cultured in Dulbecco’s Modified Eagle Medium-Glutamax-I supplemented with 100 U/mL penicillin, 100 µg/mL streptomycin, 5% dialyzed fetal bovine serum, 100 µg/mL zeocin and 1 mg/mL G418. The cells were split into poly-D-lysine-coated black 96-well plates with clear bottoms (6 × 10^4 cells/well). The following day, the culture medium was aspirated, and the cells were incubated in 50 µL assay buffer (Hanks Buffered Salt Solution containing 20 mM HEPES, 1 mM CaCl2, 1 mM MgCl2 and 2.5 mM probenecid, pH 7.4) supplemented with […] Fluo–4/AM at 37 °C for 1 h. […] The 96-well plate was assayed in a FLEXStation (Molecular Devices, Crawley, UK) measuring emission (in fluorescence units (FU)) at 525 nm caused by excitation at 485 nm before and up to 90 s after the addition of 33.3 µL agonist-containing assay buffer. […]

[6] = target: T5, GluK3a (Rattus norvegicus, UniProt P42264); experiment: Intracellular Ca2+ imaging assay, HEK293 cells expressing GluK3a; type: cell-based
T5 construct: expressed in transfected cells
T5 sequence (P42264 32-919): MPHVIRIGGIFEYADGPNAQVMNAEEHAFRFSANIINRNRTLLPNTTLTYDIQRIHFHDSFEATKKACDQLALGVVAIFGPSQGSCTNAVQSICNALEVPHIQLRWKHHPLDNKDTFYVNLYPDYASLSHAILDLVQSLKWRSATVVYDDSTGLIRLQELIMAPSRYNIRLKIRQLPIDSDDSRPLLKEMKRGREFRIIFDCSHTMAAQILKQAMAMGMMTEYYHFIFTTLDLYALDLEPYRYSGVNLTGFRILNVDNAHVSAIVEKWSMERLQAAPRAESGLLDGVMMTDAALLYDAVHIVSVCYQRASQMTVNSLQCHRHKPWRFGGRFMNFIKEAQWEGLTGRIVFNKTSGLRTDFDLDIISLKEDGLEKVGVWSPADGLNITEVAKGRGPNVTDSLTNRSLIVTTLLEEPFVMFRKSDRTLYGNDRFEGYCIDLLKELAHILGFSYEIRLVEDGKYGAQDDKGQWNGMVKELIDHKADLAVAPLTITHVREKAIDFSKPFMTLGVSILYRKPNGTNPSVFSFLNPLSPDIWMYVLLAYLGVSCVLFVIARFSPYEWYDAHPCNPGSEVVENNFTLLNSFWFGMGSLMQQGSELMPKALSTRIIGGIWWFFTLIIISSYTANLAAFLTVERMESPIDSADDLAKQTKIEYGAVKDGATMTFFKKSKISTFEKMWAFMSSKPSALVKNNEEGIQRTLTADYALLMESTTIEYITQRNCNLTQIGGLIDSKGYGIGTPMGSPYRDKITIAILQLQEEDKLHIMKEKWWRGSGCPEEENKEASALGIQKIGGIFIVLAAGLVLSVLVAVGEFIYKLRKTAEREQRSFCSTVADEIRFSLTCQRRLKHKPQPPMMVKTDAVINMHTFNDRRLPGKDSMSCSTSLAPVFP
Source text: For the determination of antagonistic activity of compounds at GluK1, GluK3 and GluA2 receptors, stable HEK293 cell lines expressing rat GluK1b(Q), GluK3a, and GluA2(Q)i were created. A polyclonal stable cell line expressing GluK3a was created as described previously. For the creation of polyclonal stable cell lines expressing GluK1and GluA2 receptors, cDNA encoding blasticidin-S deaminase (blas) enzymes were inserted into the pIRES plasmid vector (Clontech, Mountain View, CA, USA) to create the plasmid vector pRES(blas). Subsequently, cDNA for rat GluK1(Q)1b and the flip isoform of rat GluA2(Q)i were inserted into pRES(blas) to create the expression constructs GluK1b(Q)pIRES(blas) and GluA2i(Q)pIRES(blas), respectively. These were used to transfect GripTite^TM HEK293 cells followed by selecting with 20 µg/mL blasticidin (Invivogen, Toulouse, France) and 0.50 mg/mL geneticin in the presence of 20 µM of the AMPA receptor antagonist CNQX (Tocris, Bristol, UK) until stably transfected GluK1b(Q) and GluA2(Q)i cell lines were obtained. For functional assays, cells were plated into clear-bottomed, black 96-well fluorescence culture plates (Corning, Vordingborg, Denmark), and when >70% confluent, the cells were loaded with 2 μM Fluo 4-AM calcium sensitive dye (Abcam, Cambridge, UK) and used for the imaging of agonist-evoked changes in intracellular Ca^2+ using a FlexStation I plate reader (Molecular Devices, San Jose, CA, USA). […] Changes in dye fluorescence in response to the addition of an agonist solution were then measured at 538 nm using excitation at 485 nm and emission cut-off at 515 nm. Baseline fluorescence was measured for 16 s before the addition of 50 µL agonist solution to each well of the assay plate, and fluorescence was measured for 120 to 160 s after addition of the agonists. Peak change in fluorescence was calculated as the difference between the maximal observed increase in fluorescence and pre-agonist baseline fluorescence. The agonist solutions contained 100 µM KA together with 300 µM of the KAR positive allosteric modulator BPAM344 (Sigma-Aldrich Chemical, St. Louis, MO, USA) for GluK1 and GluK3 experiments or 100 µM glutamate together with 100 µM of the AMPAR positive allosteric modulator cyclothiazide for GluA2 experiments (HelloBio, Bristol, UK). Responses were determined in at least triplicate at each compound concentration.

T1 sequence (P19491 22-883 isoform P19491-2 limits assumed): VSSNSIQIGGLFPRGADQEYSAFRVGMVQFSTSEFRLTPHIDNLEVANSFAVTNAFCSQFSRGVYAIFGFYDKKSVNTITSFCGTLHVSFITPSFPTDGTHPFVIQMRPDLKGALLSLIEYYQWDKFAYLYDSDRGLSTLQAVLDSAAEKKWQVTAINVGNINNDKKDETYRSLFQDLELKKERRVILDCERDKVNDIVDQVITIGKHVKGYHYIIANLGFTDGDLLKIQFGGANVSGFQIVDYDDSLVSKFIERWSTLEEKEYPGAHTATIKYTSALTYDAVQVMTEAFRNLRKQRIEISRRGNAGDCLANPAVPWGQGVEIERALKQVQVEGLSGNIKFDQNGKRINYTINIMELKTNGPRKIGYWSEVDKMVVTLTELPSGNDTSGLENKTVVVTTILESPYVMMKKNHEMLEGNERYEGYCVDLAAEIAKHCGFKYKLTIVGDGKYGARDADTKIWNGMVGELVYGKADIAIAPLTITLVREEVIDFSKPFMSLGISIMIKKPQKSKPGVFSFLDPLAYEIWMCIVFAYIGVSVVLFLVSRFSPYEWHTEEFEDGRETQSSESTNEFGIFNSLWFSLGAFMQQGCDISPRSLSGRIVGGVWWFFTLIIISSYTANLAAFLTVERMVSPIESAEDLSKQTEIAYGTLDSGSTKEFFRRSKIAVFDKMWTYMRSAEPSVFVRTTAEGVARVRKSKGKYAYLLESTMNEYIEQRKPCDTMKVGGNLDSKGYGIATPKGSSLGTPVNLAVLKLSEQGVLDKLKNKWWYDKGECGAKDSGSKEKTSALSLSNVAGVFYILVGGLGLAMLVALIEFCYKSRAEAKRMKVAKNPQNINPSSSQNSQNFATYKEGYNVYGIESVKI

Question: How did the inhibition at 10 µM [1] turn out when `O=C(Nn1c(=O)c(=O)[nH]c2cc(C#Cc3cnc4cccnn34)ccc21)c1ccccc1` [Compound 28] was run?
Answer: < 5%

Question: What about the Ki [2] of the same molecule?
Answer: > 100 µM

Question: What about the inhibition at 10 µM [3] of the same molecule?
Answer: < 5%

Question: What about the Ki [4] of the same molecule?
Answer: ~100 µM

Question: And the “agonist or antagonist activity at mGluR2” value [5]?
Answer: neither agonistic nor antagonistic

Question: And the “inhibition of agonist-evoked responses at GluK3” value ([6]; 10 µM compound, Ca2+ fluorescence)?
Answer: full inhibition

Question: What about the IC50 ([6]; 100 µM KA + 300 µM BPAM344, Ca2+ fluorescence, read-out: IC50, antagonism of agonist-evoked responses at GluK3) of the same molecule?
Answer: 3.6 µM
